Results as given in ChEMBL document CHEMBL1201862, “PubChem BioAssay data set” (2004).
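All cell lines were grown in 96-well plates and treated with compound for 48 hours. GI50 marks 50% less growth.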 Active and inactive are the calls of the source. No stated cut-off is given here; in the data, active = GI50 up to about 1.1 µM and inactive = higher.

What was measured:
Test in all cases: NCI anticancer screen, dose series, 48 h
[1] = system: SNB-75
[2] = system: NCI-H226
[3] = system: OVCAR-8
[4] = system: TK-10
[5] = system: SF-295
[6] = system: NCI-H23
[7] = system: OVCAR-4
[8] = system: A549
[9] = system: UACC-62
[10] = system: K562
[11] = system: SNB-78
[12] = system: HCT-116
[13] = system: HOP-92
[14] = system: KM12
[15] = system: CCRF-CEM
[16] = system: U-251
[17] = system: 786-0
[18] = system: BT-549
[19] = system: NCI/ADR-RES
[20] = system: MDA-MB-435

Measured: GI50

COC(=O)c1cc(C(=O)OC)c(CC(=O)C(=O)NC2C3CC4CC(C3)CC2C4)nc1CC(=O)C(=O)NC1C2CC3CC(C2)CC1C3 (stereo not given)
inactive: [1] > 100 µM | [2] > 100 µM | [3] > 100 µM | [4] > 100 µM | [5] > 100 µM | [6] > 100 µM | [7] > 100 µM | [8] > 100 µM | [9] > 100 µM | [10] > 100 µM | [11] > 100 µM | [12] > 100 µM | [13] 74.6 µM | [14] > 100 µM | [15] > 100 µM | [16] > 100 µM | [17] > 100 µM

O=C1c2ccccc2N2OC3(N4CCOCC4)CCCC3C12c1ccccc1 (stereo not given)
inactive: [1] > 100 µM | [2] > 100 µM | [3] > 100 µM | [5] > 100 µM | [6] > 100 µM | [7] > 100 µM | [8] > 100 µM | [9] 93.1 µM | [10] > 100 µM | [11] > 100 µM | [12] > 100 µM | [13] 53.3 µM | [15] > 100 µM | [16] > 100 µM | [17] > 100 µM

Clc1cccc(C2SCc3nc4ccccc4n32)c1 (stereo not given)
inactive: [1] 3.52 µM | [2] 12.8 µM | [3] 24.8 µM | [4] 25.6 µM | [5] 30.3 µM | [6] 18.3 µM | [7] 27 µM | [8] 42.9 µM | [9] 13.8 µM | [10] 14.9 µM | [11] 22.1 µM | [13] 11.5 µM | [14] 18.8 µM | [15] 27.4 µM | [16] 16 µM | [17] > 10 µM

COC1(OC)CC2CCCCC2=C(C)N1S(=O)(=O)c1ccccc1 (stereo not given)
inactive: [1] > 100 µM | [2] > 100 µM | [3] > 100 µM | [4] > 100 µM | [5] > 100 µM | [6] > 100 µM | [7] > 100 µM | [8] > 100 µM | [9] > 100 µM | [10] > 100 µM | [11] > 100 µM | [12] > 100 µM | [13] > 100 µM | [14] > 100 µM | [15] > 100 µM | [16] > 100 µM | [17] > 100 µM

[N-]=[N+]=Nc1nnc(CCCCc2nnc(N=[N+]=[N-])o2)o1
inactive: [1] > 100 µM | [2] > 100 µM | [3] > 100 µM | [4] > 100 µM | [5] > 100 µM | [6] > 100 µM | [7] > 100 µM | [8] > 100 µM | [9] > 100 µM | [10] > 100 µM | [11] > 100 µM | [12] > 100 µM | [13] > 100 µM | [14] 91.4 µM | [15] > 100 µM | [16] > 100 µM | [17] > 100 µM

COC(=O)/C=C(C)/C=C/C1OC(C)OCC1O (stereo not given)
inactive: [2] > 100 µM | [3] > 100 µM | [4] > 100 µM | [5] > 100 µM | [6] > 100 µM | [7] > 100 µM | [8] > 100 µM | [9] > 100 µM | [10] > 100 µM | [11] > 100 µM | [13] > 100 µM | [14] > 100 µM | [15] > 100 µM | [16] > 100 µM | [17] > 100 µM

COC(=O)C(=O)C(C(=O)C(=O)Nc1cc([N+](=O)[O-])ccc1[N+](=O)[O-])c1nc2ccc(C(=O)c3ccccc3)cc2nc1O (stereo not given)
inactive: [2] 25.4 µM | [3] 26.9 µM | [5] 31 µM | [6] 25.2 µM | [7] 49.9 µM | [8] 43.8 µM | [10] 21.3 µM | [11] 19.2 µM | [12] 40.6 µM | [14] 28.9 µM | [15] 25.2 µM | [16] 33.4 µM | [17] 95.3 µM

N#Cc1cc([N+](=O)[O-])ccc1NC(=O)C(F)(F)F
inactive: [1] > 49.7 µM | [2] > 88.7 µM | [3] > 84.3 µM | [4] > 100 µM | [5] > 100 µM | [6] > 100 µM | [7] > 100 µM | [8] > 74.3 µM | [9] > 100 µM | [10] > 60.5 µM | [11] > 100 µM | [12] > 42.9 µM | [13] 58.7 µM | [14] > 100 µM | [15] > 84.7 µM | [16] > 100 µM | [17] > 49.7 µM

CCN(CC)c1ccc(/N=N/c2ccc(-c3nc4cccn(C)c-4n3)cc2)cc1
inactive: [1] 17 µM | [2] 19.8 µM | [3] 10.3 µM | [4] 27.9 µM | [5] 5.04 µM | [6] 11.4 µM | [7] 11.2 µM | [8] 6.62 µM | [9] 11.9 µM | [10] 2.86 µM | [11] 16.7 µM | [12] 3.61 µM | [13] 11.7 µM | [14] 8.95 µM | [15] 3.75 µM | [16] 3.92 µM | [17] 4.09 µM

Cc1ccc(SC(C)/C=C/NNC2=NN=C(c3ccccc3)C(c3ccccc3)N2)cc1 (stereo not given)
inactive: [1] 20.7 µM | [2] 29 µM | [3] 31.7 µM | [4] 75.7 µM | [5] 30.3 µM | [6] 48.9 µM | [7] 29.1 µM | [8] 33.1 µM | [9] 14.9 µM | [10] 36.9 µM | [11] 66.7 µM | [12] 39.6 µM | [13] 20 µM | [14] 27.5 µM | [15] 21.5 µM | [17] 39.6 µM

COC(=O)/C(=N/NC(C)(C)C)C(C(=O)C=C(C)C)C(=O)C(=O)Nc1ccc(Cl)cc1C (stereo not given)
inactive: [2] 99.3 µM | [3] > 100 µM | [4] > 100 µM | [5] > 100 µM | [6] > 100 µM | [7] > 100 µM | [8] > 100 µM | [9] > 100 µM | [10] > 100 µM | [11] > 10 µM | [12] > 100 µM | [14] > 100 µM | [15] > 100 µM | [16] > 100 µM | [17] > 100 µM

COC(=O)C(=O)C(C(C)=O)C(=O)NCc1ccc(OC)c(OC)c1 (stereo not given)
inactive: [1] > 100 µM | [2] > 100 µM | [3] > 100 µM | [4] > 100 µM | [5] > 100 µM | [6] > 100 µM | [7] > 100 µM | [8] > 100 µM | [9] > 100 µM | [10] > 100 µM | [11] > 100 µM | [12] > 100 µM | [13] > 100 µM | [14] > 100 µM | [15] > 100 µM | [16] > 100 µM | [17] > 100 µM

CC1(C)OC2C(=O)OC(COCc3ccccc3)C2O1 (stereo not given)
inactive: [1] > 100 µM | [2] > 100 µM | [3] > 100 µM | [4] > 100 µM | [5] > 100 µM | [6] > 100 µM | [7] > 100 µM | [8] > 100 µM | [9] > 100 µM | [10] > 100 µM | [11] > 100 µM | [12] > 100 µM | [13] > 100 µM | [14] > 100 µM | [15] > 100 µM | [16] > 100 µM | [17] > 100 µM

CN/N=C(\C(=O)Nc1ccc(C(F)(F)F)cc1[N+](=O)[O-])C(c1cnc2ccc([N+](=O)[O-])cc2n1)[N+](=O)[O-] (stereo not given)
inactive: [2] 17.9 µM | [3] 59 µM | [5] 37.7 µM | [6] 62.7 µM | [7] > 10 µM | [8] 28 µM | [9] > 10 µM | [10] 8.79 µM | [11] 61.7 µM | [12] 41.4 µM | [13] 64.1 µM | [14] 48.6 µM | [15] 9.77 µM | [16] 78.5 µM | [17] 32.4 µM

COc1ccc(C2Oc3c(c(O)cc4c3[C@H](c3ccc(O)cc3O)[C@H](O)C(c3ccc(O)c(O)c3)O4)C[C@@H]2O)cc1O (stereo not given in full)
inactive: [1] > 100 µM | [2] > 100 µM | [3] > 100 µM | [4] > 100 µM | [5] > 100 µM | [6] > 100 µM | [7] > 100 µM | [8] > 100 µM | [9] > 100 µM | [10] > 100 µM | [11] > 100 µM | [12] > 100 µM | [13] > 100 µM | [14] > 100 µM | [15] > 100 µM | [16] > 100 µM | [17] > 100 µM

COC1=CC(=O)c2c(O)c3c(c(O)c2C1=O)CC(C)(O)OC3 (stereo not given) [FUSARUBIN]
inactive: [1] 16.1 µM | [18] 6.44 µM | [2] 15.7 µM | [19] 2.56 µM | [3] 2.34 µM | [4] 10.6 µM | [5] 3.12 µM | [6] 2.28 µM | [7] 1.4 µM | [8] 1.99 µM | [9] 2.07 µM | [10] 3.44 µM | [12] 2.96 µM | [13] 2.88 µM | [14] 3.1 µM | [15] 1.25 µM | [16] 3.08 µM | [17] 5.51 µM | [20] 1.65 µM
